# In PMC11094580 (EFSA Journal, 2024):
# Read-outs that look alike come from different tables or passages of the source.
# What was measured:
# [1] = ref Gardana et al. (2007), cited from earlier work
# Clostridium orbiscindens = conditions: ref Schoefer et al. (2003); cited from earlier work
# [2] = tested on: Intestinal bacteria isolated from human faeces; conditions: 5 mg flavonoids in 50 mL broth, 2 days, anaerobic; ref Kim et al. (1998); cited from earlier work
# Wistar rats [3] = test: In vivo comet assay in liver and duodenum; set-up: species or system rat; conditions: positive control 200 mg/kg bw
# Wistar rats [4] = test: In vivo micronucleus assay in peripheral blood; set-up: species or system rat; conditions: positive control, 10 mg/kg bw, 48 h before sacrifice
structure (smiles),measurement,setting,value
"COc1ccc([C@@H]2CC(=O)c3c(O)cc(O)cc3O2)cc1O [hesperetin, reference compound]",mean C max (plasma hesperetin),"[1]; BOJ 150 mL, 51 mg hesperetin",0.043 µg/mL
same,mean C max (plasma hesperetin),"[1]; BOJ 300 mL, 102 mg hesperetin",0.08 µg/mL
"C[C@@H]1O[C@@H](O[C@H]2[C@H](Oc3cc(O)c4c(c3)O[C@H](c3ccc(O)cc3)CC4=O)O[C@H](CO)[C@@H](O)[C@@H]2O)[C@H](O)[C@H](O)[C@H]1O [naringin, reference compound]",Results: conversion by C. orbiscindens,Clostridium orbiscindens,did not convert
same,Results: bacterial metabolism,[2],metabolised to naringenin at early time
"CCOS(C)(=O)=O [EMS, ethyl methanesulfonate]",% tail intensity,Wistar rats [3]; duodenum,19.67%
same,% tail intensity,Wistar rats [3]; liver,18.30%
"O=P1(N(CCCl)CCCl)NCCCO1 (stereo not shown) [CPA, cyclophosphamide, reference compound]",% MNPCE frequency,Wistar rats [4],0.93 ± 0.16%
